Results on two substances are retold here after patent US9371527B2, “Compositions and methods related to protein displacement therapy for myotonic distrophy” (University of Rochester, priority 2006, dated 2016).

What all share (type): in vivo, HSA^LR mice
The subject of data set [1] is nuclear foci containing CUG^exp RNA and MBNL1 protein. The experiment in a line: FISH and immunofluorescence of ribonuclear inclusions after ClC-1 antisense morpholino. Conditions: TA muscle, 3 weeks after injection; listed as antisense morpholino.
Data set [2] has as its system Titin, ZASP, Serca1 alternative splicing. Kind of data set: RT-PCR of alternative splicing of other genes misregulated in DM1 after ClC-1 antisense morpholino. Conditions: HSA^LR TA muscle. An excerpt: HSA^LR and WT mice have the same (FVB) inbred strain background. […] FIGS. 25D and 25E show the percentage of ClC-1 splice products that include exon 7a is shown at 3 (D) and 8 (E) weeks following morpholino injection. Mean±s.d.; n=3 per group; **P<0.001; *P=0.035 antisense- versus invert-treated controls; t-test. […] ClC-1 mRNA level is expressed in arbitrary units relative to housekeeping gene RNA polymerase II transcription factor IIB. Mean±s.d.; n=3 per group; *P=0.06 for antisense vs invert-treated control; t-test.
Mice were sacrificed three or eight weeks after morpholino injection. TA muscles were removed and frozen in liquid nitrogen. Total RNA was isolated with TriReagent (Molecular Research Center). cDNA synthesis was primed with oligo dT as described previously (Mankodi, A., et al. (2002) Mol Cell 10:35-44). Assays for alternative splicing of ClC-1 and Titin were described previously (Mankodi, A., et al. (2002) Mol Cell 10:35-44; Lin, X., et al. (2006) Hum Mol Genet 15:2087-2097). Primer sequences were
RT-PCR products (22 cycles) were separated on agarose gels, stained with SYBR green II, and scanned on a laser fluorimager (Molecular Dynamics). Band intensity was quantified using ImageQuant software. Total levels of ClC-1 mRNA were determined by quantitative real-time RT-PCR (Taqman, Applied Biosystems) relative to housekeeping gene RNA polymerase II transcription factor IIB.

The next data set deals with ClC-1 channel. The experiment in a line: Whole cell patch clamp of single FDB muscle fibers after morpholino injection/electroporation. The settings on record: for ClC-1 current density: 3-5 days after foot pad injection/electroporation; for ClC-1 deactivation kinetics: 3-5 days after injection, -100 mV. As to the method: Antisense morpholino targeting the 3′ splice junction of ClC-1 exon 7a was injected into foot pad muscle of HSA^LR mice under general anesthesia. Uptake into muscle fibers was enhanced by in vivo electroporation. The morpholino was tagged with fluorescein. 4 days later, individual FDB muscle fibers were isolated. […] As a control, the opposite footpad was injected with morpholino having the inverted sequence. […] The peak current density in HSA^LR mice (center panel) is much lower than in wild-type mice (left panel). However, after morpholino treatment in HSA^LR mice (right panel), the current density is restored to levels that are similar to wild-type mice. […] The antisense morpholino (closed squares) restores chloride current density to normal levels (open circles or triangles).
The dashed lines represent the zero current level. Capacitative currents recorded from each fiber are shown in the insert of each panel (scale bars: vertical, 3 nA; horizontal, 4 ms). Superimposed traces (solid lines) of normalized ClC-1 current deactivation at −100 mV in FDB fibers obtained from invert- (circles) and antisense-treated (squares) HSA^LR mice and antisense-treated WT mice (triangles) fit with a second order exponential (symbols) are shown in the insert to the left hand panel. Note that accelerated ClC-1 deactivation kinetics of FDB fibers obtained from HSA^LR mice is normalized only following treatment with antisense morpholino. […] Smooth curves through each dataset were generated using a modified Boltzmann equation (Lueck, J. D., et al. (2007) J Gen Physiol 129:79-94). […] Mean±s.e.m.; *P<0.05 invert-treated HSA^LR fibers compared to each of the other experimental conditions; t-test. […] Mean±s.d.; n=3 to 7 per group. Antisense morpholino was injected into one TA, invert morpholino was injected into the contralateral TA, and gastrocnemius muscle served as an untreated control. **P<0.0001 for antisense- vs invert-treated control; ANOVA.
Therefore, the effect of AON treatment on ClC-1 channel function was determined Hindlimb foot pads of […] WT and HSA^LR mice were injected/electroporated with carboxyfluorescein-labeled antisense or invert morpholino. Patch clamp analysis was performed three-to-five days after injection, at a time when fibers were still small enough to maintain an effective voltage clamp (Lueck, J. D., et al. (2007) J Gen Physiol 129:79-94). […] Rescue of ClC-1 activity was not due to a shift in channel activation since the voltage dependence of relative channel open probability (Po) was not different between antisense and invert-injected HSA^LR and WT fibers (FIG. 26C).
Delivery of antisense and invert morpholinos into FDB fibers was achieved by injection and electroporation of hindlimb footpads. Briefly, 12-14-day-old HSA^LR mice were anesthetized by intraperitoneal injection of 100 mg/kg ketamine, 10 mg/kg xylazine, and 3 mg/kg acepromazine. Hindlimb foot pads then were injected with bovine hyaluronidase followed 1 hour later with 20 μg (10 μl, 2 μg/μl in PBS) of antisense or invert carboxyfluorescein-labeled morpholino. Uptake of morpholinos was enhanced by electroporation (100 V/cm, 20 pulses at 1 Hz, and 20 ms per pulse) of the foot pad immediately after injection (DiFranco, M., et al. (2006) Protein Expr Purif 47:281-288). Three to five days after injection/electroporation, individual FDB muscle fibers were isolated as previously described (Lueck, J. D., et al. (2007) J Gen Physiol 129:79-94). Brightfield and fluorescence (488 nm excitation) images of single FDB fibers were acquired using a 40× (1.4 NA) objective and a TILL IMAGO QE cooled-CCD camera. […] ClC-1 currents were measured and analyzed in whole cell patch clamp experiments (Hamill, O. P., et al. (1981) Pflugers Arch 391:85-100) using an approach identical to that described in detail elsewhere (Lueck, J. D., et al. (2007) J Gen Physiol 129:79-94). ClC-1 current density (pA/pF) was calculated in order to compare data across fibers of different sizes. […]
(The patch-clamp technique gives a direct electrical read-out from membranes.)

Entries after “also recorded” stand apart in the source; their conditions may differ.

Regarding “antisense 1: morpholino 5′-CCAGGCACGGTCTGCAACAGAGAAG-3′ targeting the 3′ splice site of ClC-1 exon 7a (all phosphorodiamidate morpholino (PMO))”, in data set [1], the “formation of ribonuclear inclusions (CUG^exp RNA and MBNL1 foci)” value is on record as “did not affect the formation of nuclear foci; also recorded: no effect on the formation of ribonuclear inclusions”. Further, the “alternative splicing of Serca1” value in data set [2] is “nor did it correct the alternative splicing”. Moreover, in data set [2], the “alternative splicing of ZASP” value was “nor did it correct the alternative splicing”. The “alternative splicing of Titin m-line exon 5” value in data set [2] (listed as ClC-1 antisense morpholino) is “did not correct the misregulated alternative splicing of Titin m-line exon 5”; in data set [2] (listed as antisense morpholino) it was “nor did it correct the alternative splicing”. The results for the ClC-1 current density result in the data set with ClC-1 channel (listed as antisense morpholino) and in the data set on ClC-1 channel (listed as morpholino AON) were “restores normal chloride current density” and “rescued to WT values”, respectively. The ClC-1 deactivation kinetics result in the data set on ClC-1 channel (listed as antisense morpholino) was “normalized”; with ClC-1 channel (listed as morpholino AON), “rescued to WT values”. The “voltage dependence of relative channel open probability (Po)” value in the data set with ClC-1 channel (HSA^LR and WT) is recorded as “not different”.
“control morpholino: control morpholino 5′-GAAGAGACAACGTCTGGCACGGACC-3′, the 5′-3′ invert of the 3′ splice site blocker (all phosphorodiamidate morpholino (PMO)) [reference compound]”: the ClC-1 current density result with ClC-1 channel (listed as invert morpholino) is “not different from those of untreated HSA^LR fibers”; with ClC-1 channel (listed as inverted morpholino), “markedly reduced”. Besides, the ClC-1 deactivation kinetics entry with ClC-1 channel is given as “not different from those of untreated HSA^LR fibers”.
